Holding throughout (format): biochemical
In one assay the target is porcine pepsin (Sus scrofa, UniProt P00791). Description: Inhibition of pepsin. The following applies: Conc. 5.0 × 10^-4 M. Here is the method:
Pepsin activity was assayed by a procedure substantially similar to that described by Rich, et al., Biochem. Pharmac. 29:2205 (1980). Substrate, […].2 trifluoroacetate, and porcine pepsin were obtained from commercial sources. Assay solutions, in a volume of 2.00 mL, contained 2.0×10^-4 M substrate in 0.040M sodium formate buffer, pH 4.0, and 0.050 mL of inhibitor solutions in dimethylsulfoxide. Assays were initiated by addition of 0.020 mL of pepsin (0.10 mg/mL), and hydrolysis of substrate was monitored by measuring the increase in absorbance at 310 nm on a spectrophotometer.

The next assay concerns the target T1, thermolysin (Bacillus thermoproteolyticus, UniProt P00800).
T1 construct: purchased
T1 sequence (P00800 233-548): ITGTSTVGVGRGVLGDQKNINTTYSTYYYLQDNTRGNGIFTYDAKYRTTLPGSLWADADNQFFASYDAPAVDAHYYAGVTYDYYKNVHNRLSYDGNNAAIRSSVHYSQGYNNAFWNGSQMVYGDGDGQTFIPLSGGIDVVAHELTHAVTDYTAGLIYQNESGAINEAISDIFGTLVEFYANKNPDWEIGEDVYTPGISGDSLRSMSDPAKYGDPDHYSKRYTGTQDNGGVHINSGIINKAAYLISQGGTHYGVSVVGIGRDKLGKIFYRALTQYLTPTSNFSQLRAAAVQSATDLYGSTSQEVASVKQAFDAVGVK
The assay is described as follows: Inhibition of thermolysin. Particulars: Conc. 5.0 × 10^-4 M. As to the method: The metalloenzyme thermolysin was assayed by a procedure substantially similar to that described by Feder et al., Biochemistry 9:2784 (1970). Substrate, furylacryloyl-glycyl-leucinamide, and thermolysin were obtained from commercial sources. Assay solutions consisted of furylacryloyl-glycyl-leucinamide (0.100 mL, 8.0×10^-3 M in N,N-dimethylformamide) and 1.90 mL of 0.50M Tris buffer, pH 7.5, containing 0.10M NaCl and 0.010M CaCl2. Either 0.100 mL of dimethylsulfoxide or 0.100 mL of dimethylsulfoxide containing inhibitor was added and the reaction was initiated by the addition of 0.020 mL of thermolysin (1.0 mg/mL). The rate of hydrolysis was monitored by measuring the decrease in absorbance at 345 nm.

The target in assay [1] is Porcine pancreatic elastase (Sus scrofa, UniProt P00772). Description: Inhibition of pancreatic elastase. As to the method: Porcine pancreatic elastase (9.8 U/mg.) was obtained from commercial sources. […] Reactions were initiated by addition of 0.5 μg of elastase in 0.020 mL of 0.020M sodium acetate buffer, pH 6.0, and hydrolysis of substrate was monitored spectrophotometrically at 405 nm at 25° C. Assay results are set forth in Table 4, below, expressed as percentages of activity of control mixtures to which no inhibitor was added: […]
Chain of Porcine pancreatic elastase (P00772 27-266): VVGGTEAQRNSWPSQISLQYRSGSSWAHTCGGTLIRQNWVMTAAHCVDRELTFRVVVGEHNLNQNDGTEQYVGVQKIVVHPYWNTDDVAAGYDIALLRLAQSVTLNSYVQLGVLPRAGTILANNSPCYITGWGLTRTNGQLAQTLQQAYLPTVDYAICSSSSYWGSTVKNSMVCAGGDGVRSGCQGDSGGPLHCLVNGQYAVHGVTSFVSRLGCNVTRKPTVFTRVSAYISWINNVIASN

Another assay addresses T2, neutrophil elastase (Homo sapiens, UniProt P08246).
T2 sequence (P08246 30-267): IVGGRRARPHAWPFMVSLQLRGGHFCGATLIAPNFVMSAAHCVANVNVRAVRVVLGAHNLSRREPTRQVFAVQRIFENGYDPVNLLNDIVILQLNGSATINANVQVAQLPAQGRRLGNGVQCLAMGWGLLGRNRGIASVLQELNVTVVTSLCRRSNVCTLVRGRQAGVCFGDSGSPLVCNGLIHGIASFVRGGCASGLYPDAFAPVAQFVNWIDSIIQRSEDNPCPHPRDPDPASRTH
The assay is described as follows: Inhibition of neutrophil elastase, additional peptide inhibitors preincubated in phosphate buffer (Table 3). More on the design: Neutrophil elastase was prepared by the procedure described by Baugh. et al; from tissue. As to the method: Additional peptide inhibitors were evaluated by a procedure similar to that described above. Stock solutions of inhibitors (1.00 mM) were prepared in dimethylsulfoxide and compounds were diluted to 0.10 mM with […], pH 7.5, yielding the free boronic acid. After incubation for one hour at about 23°, inhibitors were added to assay solutions (2.00 mL) consisting of […] MeOSuc-Ala-AlaProVal-p-nitroanilide in 0.10M Hepes buffer, pH 7.5, containing 0.50M NaCl. Assays were initiated by addition of 0.50 μg neutrophil elastase. Control assays without inhibitor indicated an initial velocity of 0.0195 min^-1. The value "k" in Table 3, below, is an estimate of the first order rate constant for time-dependent inhibition, as described above for MeOSuc-AlaAlaPro-Boroval-OH (Table 1).

A further assay addresses T3, α-chymotrypsin (Bos taurus, UniProt P00766).
T3 construct: purchased
The assay is described as follows: Titration of α-chymotrypsin. As to the method: In these experiments, α-chymotrypsin, obtained from commercial sources, was standardized by titration with various concentrations of MeOSuc-AlaAlaPro-Borophe-diethanolamine. In each case, enzyme was incubated with inhibitor for 5 minutes at 23°, in 0.01M Hepes buffer, pH 7.5, containing 0.50M NaCl and 10% dimethylsulfoxide. Aliquots were then removed and assayed for enzyme activity.

The values that follow come from patent US4499082A, “α-Aminoboronic acid peptides” (E. I. Du Pont de Nemours and Company, priority 1983, dated 1985).

SMILES strings stand for the structures.

Chain of porcine pepsin (P00791 60-385): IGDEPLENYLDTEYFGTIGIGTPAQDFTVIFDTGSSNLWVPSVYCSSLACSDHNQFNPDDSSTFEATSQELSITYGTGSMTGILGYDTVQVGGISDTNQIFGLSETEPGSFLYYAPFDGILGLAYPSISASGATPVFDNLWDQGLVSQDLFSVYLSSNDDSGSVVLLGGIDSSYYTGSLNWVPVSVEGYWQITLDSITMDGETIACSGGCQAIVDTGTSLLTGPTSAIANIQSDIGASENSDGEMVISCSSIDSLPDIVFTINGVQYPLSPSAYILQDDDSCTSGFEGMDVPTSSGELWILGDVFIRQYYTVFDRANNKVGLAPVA

Consider `CC(NC(=O)C(C)NC(=O)OC(C)(C)C)B1OCCNCCO1` (stereo not drawn) [Boc--Ala--Boroala--diethanolamine, Boc-Ala-Boroala-diethanolamine], for which the “% Activity” value was found to be 85% at porcine pepsin and 99% on thermolysin. Besides, in assay [1] (inhibitor 5.0 × 10^5 nM, 1.0 min, time dependency not observed), the “Activity % of Control” value is reported as 67 % of Control.

`CC(NC(=O)C(C)NC(=O)OC(C)(C)C)B1OC(C)(C)C(C)(C)O1` (stereo not drawn) [Boc--Ala--Boroala--pinacol, Boc-Ala-Boroala-pinacol]: the “% Activity” value on porcine pepsin is 90%; at thermolysin, 102%.

Consider `CC(C)C(NC(=O)C1CCCN1C(=O)C(Cc1ccccc1)NC(=O)OC(C)(C)C)B(O)O` [Boc--D-Phe--Pro--Boroval--OH], for which, on neutrophil elastase (Conc. 2.0 × 10^-7 M), the “% Initial Activity” value turned out to be 54% and the “k, first order rate constant for time-dependent inhibition” value was determined as 0.35 min⁻¹.

In the case of `CC(C)CC(NC(=O)CNC(=O)OC(C)(C)C)B1OCCNCCO1` (stereo not drawn) [Boc--Gly--Boroleu--diethanolamine, Boc-Gly-Boroleu-diethanolamine], the “% Activity” value on porcine pepsin came out at 90%.

Consider `CC(C)CC(NC(=O)CNC(=O)OC(C)(C)C)B1OC(C)(C)C(C)(C)O1` (stereo not drawn) [Boc--Gly--Boroleu--pinacol, Boc-Gly-Boroleu-pinacol], for which, on porcine pepsin, the “% Activity” value turned out to be 87%.

With `CC(C)CC(NC(=O)CNC(=O)C(Cc1ccccc1)NC(=O)OC(C)(C)C)B1OCCNCCO1` (stereo not shown) [Boc--Phe--Gly--Boroleu--diethanolamine, Boc-PheGly-Boroleu-diethanolamine], the “% Activity” value at porcine pepsin amounted to 71%.

`CC(C)CC(NC(=O)CNC(=O)C(Cc1ccccc1)NC(=O)OC(C)(C)C)B1OC(C)(C)C(C)(C)O1` (stereo not shown) [Boc--Phe--Gly--Boroleu--pinacol, Boc-PheGly-Boroleu-pinacol]: on porcine pepsin, the “% Activity” value came to 68%.

With `CC(C)C[C@H](NC(=O)CNC(=O)[C@@H](N)Cc1ccccc1)B1OC(C)(C)C(C)(C)O1.O=C(O)C(F)(F)F` [H--Phe--Gly--Boroleu--pinacol, H-PheGly-Boroleu-pinacol.trifluoroacetate], on porcine pepsin, the “% Activity” value is reported as 69%.

Take `CC(C)C(NC(=O)C(CCC(=O)O)NC(=O)CNC(=O)C(N)Cc1ccccc1)B(O)O` (stereo not shown) [H--Phe--Gly--Glu--Boroval--OH]: the “% Initial Activity” value at neutrophil elastase (Conc. 2.0 × 10^-6 M) is given as 54%.

For `CC(C)C(NC(=O)C(CO)NC(=O)CNC(=O)C(N)Cc1ccccc1)B(O)O` (stereo not shown) [H--Phe--Gly--Ser--Boroval--OH], the “% Initial Activity” value at neutrophil elastase (Conc. 1.0 × 10^-6 M) came out at 75%.

Take `CCC(C)C(NC(=O)C1CCCN1C(=O)C(C)NC(=O)C(C)NC(=O)CCC(=O)OC)B(O)O` (stereo not shown) [MeOSuc--Ala--Ala--Pro--Boroile--OH]: at neutrophil elastase (Conc. 1.0 × 10^-7 M), the “% Initial Activity” value is given as 60% and the “k, first order rate constant for time-dependent inhibition” value stood at 0.28 min⁻¹.

Consider `COC(=O)CCC(=O)NC(CCCCNC(=O)OCc1ccccc1)C(=O)NC(C)C(=O)N1CCCC1C(=O)NC(B(O)O)C(C)C` (stereo not shown) [MeOSuc--Lys(Z)--Ala--Pro--Boroval--OH, MeOSuc--Lys(Z)--AlaPro--Boroval--OH], for which, at neutrophil elastase (Conc. 5.0 × 10^-8 M), the “% Initial Activity” value came to 59% and the “k, first order rate constant for time-dependent inhibition” value came to 0.54 min⁻¹.

As for `COC(=O)CCC(=O)NC(Cc1ccccc1)C(=O)NCC(=O)NC(CCC(=O)O)C(=O)NC(B(O)O)C(C)C` (stereo not shown) [MeOSuc--Phe--Gly--Glu--Boroval--OH], at neutrophil elastase (Conc. 1.0 × 10^-6 M), the “% Initial Activity” value was 52% and the “k, first order rate constant for time-dependent inhibition” value came to 0.18 min⁻¹.

As for `COC(=O)CCC(=O)N[C@@H](Cc1ccccc1)C(=O)NCC(=O)N[C@@H](CO)C(=O)NC(B(O)O)C(C)C` (stereo partly shown) [MeOSuc--Phe--Gly--Ser--Boroval--OH], on neutrophil elastase (Conc. 5.0 × 10^-7 M), the “% Initial Activity” value stood at 78% and the “k, first order rate constant for time-dependent inhibition” value came to 0.26 min⁻¹.

On to `COC(=O)CCC(=O)N[C@@H](C)C(=O)N[C@@H](C)C(=O)N1CCC[C@H]1C(=O)NC(C)B1OCCNCCO1` (stereo partly shown) [MeOSuc-AlaAlaPro-Boroala-diethanolamine], for which the “capacity for inhibition of pancreatic elastase, crystalline versus amorphous sample” value in assay [1] (crystalline sample relative to amorphous sample of Example 9) is given as “at least 5 fold”.

As for `COC(=O)CCC(=O)NC(C)C(=O)NC(C)C(=O)N1CCCC1C(=O)NC(Cc1ccccc1)B1OCCNCCO1` (stereo not shown) [MeOSuc-AlaAlaPro-Borophe-diethanolamine], the “% Activity” value was 68.2% on α-chymotrypsin (α-chymotrypsin 3 μg/mL, inhibitor 25 nM); 52.3% on α-chymotrypsin (α-chymotrypsin 3 μg/mL, inhibitor 50 nM); 31.8% at α-chymotrypsin (α-chymotrypsin 3 μg/mL, inhibitor 75 nM); 18.2% at α-chymotrypsin (α-chymotrypsin 3 μg/mL, inhibitor 100 nM); 93.8% on α-chymotrypsin (α-chymotrypsin 15 μg/mL, inhibitor 50 nM); 80.4% on α-chymotrypsin (α-chymotrypsin 15 μg/mL, inhibitor 100 nM). Besides, the “% Activity” value is 65.1% at α-chymotrypsin (α-chymotrypsin 15 μg/mL, inhibitor 200 nM); 47.9% on α-chymotrypsin (α-chymotrypsin 15 μg/mL, inhibitor 300 nM); 31.6% on α-chymotrypsin (α-chymotrypsin 15 μg/mL, inhibitor 400 nM); 15.3% at α-chymotrypsin (α-chymotrypsin 15 μg/mL, inhibitor 500 nM).

For `CC(C)C(NC(=O)C(CCC(=O)OCc1ccccc1)NC(=O)CNC(=O)C(Cc1ccccc1)NC(=O)OCc1ccccc1)B(O)O` (stereo not shown) [Z--Phe--Gly--Glu(OBzl)--Boroval--OH], on neutrophil elastase (Conc. 1.0 × 10^-7 M), the “% Initial Activity” value came out at 61% and the “k, first order rate constant for time-dependent inhibition” value worked out at 0.20 min⁻¹.

Consider `CC(C)CC(NC(=O)CNC(=O)C(Cc1ccccc1)NC(=O)OCc1ccccc1)C(=O)NC(B(O)O)C(C)C` (stereo not shown) [Z--Phe--Gly--Leu--Boroval--OH], for which, on neutrophil elastase (Conc. 2.0 × 10^-7 M), the “% Initial Activity” value came out at 62% and the “k, first order rate constant for time-dependent inhibition” value is 0.26 min⁻¹.

Turning to `CC(C)C(NC(=O)C(CCCCNC(=O)OC(C)(C)C)NC(=O)CNC(=O)C(Cc1ccccc1)NC(=O)OCc1ccccc1)B(O)O` (stereo not shown) [Z--Phe--Gly--Lys(Boc)--Boroval--OH], at neutrophil elastase (Conc. 2.0 × 10^-7 M), the “% Initial Activity” value is 55% and the “k, first order rate constant for time-dependent inhibition” value worked out at 0.37 min⁻¹.

`CC(C)C(NC(=O)C(CCCCN)NC(=O)CNC(=O)C(Cc1ccccc1)NC(=O)OCc1ccccc1)B(O)O` (stereo not shown) [Z--Phe--Gly--Lys--Boroval--OH]: at neutrophil elastase (Conc. 2.5 × 10^-7 M), the “% Initial Activity” value came to 67% and the “k, first order rate constant for time-dependent inhibition” value turned out to be 0.28 min⁻¹.

As to `CC(C)C(NC(=O)C(Cc1ccccc1)NC(=O)CNC(=O)C(Cc1ccccc1)NC(=O)OCc1ccccc1)B(O)O` (stereo not shown) [Z--Phe--Gly--Phe--Boroval--OH], at neutrophil elastase (Conc. 2.0 × 10^-7 M), the “% Initial Activity” value worked out at 47% and the “k, first order rate constant for time-dependent inhibition” value is 0.18 min⁻¹.

As to `CC(C)C(NC(=O)C(COCc1ccccc1)NC(=O)CNC(=O)C(Cc1ccccc1)NC(=O)OCc1ccccc1)B(O)O` (stereo not shown) [Z--Phe--Gly--Ser(OBzl)--Boroval--OH], on neutrophil elastase (Conc. 1.25 × 10^-7 M), the “% Initial Activity” value was found to be 66% and the “k, first order rate constant for time-dependent inhibition” value worked out at 0.17 min⁻¹.

Take `CC(NC(=O)C1CCCN1C(=O)C(Cc1ccccc1)NC(=O)OCc1ccccc1)C(=O)NC(B(O)O)C(C)C` (stereo not shown) [Z--Phe--Pro--Ala--Boroval--OH]: at neutrophil elastase (Conc. 4.0 × 10^-6 M), the “% Initial Activity” value was found to be 51%.
